Measured values taken from US11629201B2, “PSMA-binding agents and uses thereof” (ITM Isotope Technologies Munich SE, priority 2017, dated 2023).

System: PC-3 PIP/flu tumor-bearing mice
Assay: Biodistribution studies in PC-3 PIP/flu tumor-bearing mice
Conditions: for Tumor-to-blood / Tumor-to-kidney / Tumor-to-liver: PC-3 PIP tumor

`O=C(O)CCC(NC(=O)NC(CCCCNC(=O)C(Cc1ccc2ccccc2c1)NC(=O)C1CCC(CNC(=O)C(CCCCNC(=O)CCCc2ccc(I)cc2)NC(=O)CN2CCN(CC(=O)O)CCN(CC(=O)O)CCN(CC(=O)O)CC2)CC1)C(=O)O)C(=O)O` (stereo not shown) [^177Lu-PSMA-ALB-03, metal not drawn] showed a Tumor-to-blood (1 h p.i.) of 0.31 ± 0.04, a Tumor-to-kidney (1 h p.i.) of 0.48 ± 0.07 and a Tumor-to-liver (1 h p.i.) of 1.64 ± 0.61. It also gave a Blood (4 h p.i.) of 24.3 ± 3.60 % IA/g, a Bone (4 h p.i.) of 2.47 ± 0.39 % IA/g and a Heart (4 h p.i.) of 8.54 ± 1.18 % IA/g. For the same compound, the Intestines (4 h p.i.) was 3.71 ± 1.09 % IA/g, the Kidneys (4 h p.i.) was 24.5 ± 4.38 % IA/g and the Liver (4 h p.i.) was 4.56 ± 1.18 % IA/g. The Lung (4 h p.i.) was 14.21 ± 3.49 % IA/g, the Muscle (4 h p.i.) was 2.04 ± 0.37 % IA/g and the “PC-3 PIP Tumor” value (4 h p.i.) was 19.9 ± 0.79 % IA/g. The “PC-3 flu Tumor” value (4 h p.i.) was 5.32 ± 1.06 % IA/g, the Salivary glands (4 h p.i.) was 5.02 ± 1.17 % IA/g and the Spleen (4 h p.i.) was 4.76 ± 1.12 % IA/g. It also gave a Stomach (4 h p.i.) of 2.86 ± 1.03 % IA/g, a Tumor-to-blood (4 h p.i.) of 0.83 ± 0.10 and a Tumor-to-kidney (4 h p.i.) of 0.83 ± 0.14. The Tumor-to-liver (4 h p.i.) was 4.60 ± 1.34, the Blood (8 h p.i.) was 23.5 ± 0.74 % IA/g and the Bone (8 h p.i.) was 2.71 ± 0.21 % IA/g. The Heart (8 h p.i.) was 8.12 ± 0.46 % IA/g, the Intestines (8 h p.i.) was 3.70 ± 0.40 % IA/g and the Kidneys (8 h p.i.) was 28.8 ± 1.49 % IA/g. It also gave a Liver (8 h p.i.) of 4.87 ± 0.42 % IA/g, a Lung (8 h p.i.) of 12.21 ± 1.32 % IA/g and a Muscle (8 h p.i.) of 2.01 ± 0.10 % IA/g. The “PC-3 PIP Tumor” value (8 h p.i.) was 31.0 ± 5.79 % IA/g, the “PC-3 flu Tumor” value (8 h p.i.) was 5.98 ± 0.91 % IA/g and the Salivary glands (8 h p.i.) was 5.49 ± 0.59 % IA/g. It also gave a Spleen (8 h p.i.) of 4.10 ± 0.14 % IA/g, a Stomach (8 h p.i.) of 2.92 ± 0.17 % IA/g and a Tumor-to-blood (8 h p.i.) of 1.32 ± 0.29. For the same compound, the Tumor-to-kidney (8 h p.i.) was 1.07 ± 0.18, the Tumor-to-liver (8 h p.i.) was 6.38 ± 1.28 and the Blood (24 h p.i.) was 17.3 ± 1.38 % IA/g. For the same compound, the Bone (24 h p.i.) was 2.02 ± 0.31 % IA/g, the Heart (24 h p.i.) was 6.60 ± 1.01 % IA/g and the Intestines (24 h p.i.) was 2.19 ± 0.23 % IA/g. The Kidneys (24 h p.i.) was 24.7 ± 1.85 % IA/g, the Liver (24 h p.i.) was 3.35 ± 0.26 % IA/g and the Lung (24 h p.i.) was 9.86 ± 0.57 % IA/g. The Muscle (24 h p.i.) was 1.61 ± 0.18 % IA/g, the “PC-3 PIP Tumor” value (24 h p.i.) was 53.8 ± 5.61 % IA/g and the “PC-3 flu Tumor” value (24 h p.i.) was 5.47 ± 0.67 % IA/g. The Salivary glands (24 h p.i.) was 4.69 ± 0.33 % IA/g, the Spleen (24 h p.i.) was 3.75 ± 0.21 % IA/g and the Stomach (24 h p.i.) was 1.39 ± 0.27 % IA/g. For the same compound, the Tumor-to-blood (24 h p.i.) was 3.13 ± 0.35, the Tumor-to-kidney (24 h p.i.) was 2.17 ± 0.06 and the Tumor-to-liver (24 h p.i.) was 16.1 ± 1.75. The Blood (48 h p.i.) was 12.5 ± 3.78 % IA/g, the Bone (48 h p.i.) was 1.63 ± 0.56 % IA/g and the Heart (48 h p.i.) was 4.40 ± 1.18 % IA/g. For the same compound, the Intestines (48 h p.i.) was 1.73 ± 0.50 % IA/g, the Kidneys (48 h p.i.) was 22.6 ± 2.69 % IA/g and the Liver (48 h p.i.) was 2.53 ± 0.77 % IA/g. For the same compound, the Lung (48 h p.i.) was 7.45 ± 2.06 % IA/g, the Muscle (48 h p.i.) was 1.32 ± 0.41 % IA/g and the “PC-3 PIP Tumor” value (48 h p.i.) was 72.3 ± 24.7 % IA/g. For the same compound, the “PC-3 flu Tumor” value (48 h p.i.) was 5.69 ± 3.65 % IA/g, the Salivary glands (48 h p.i.) was 3.45 ± 1.09 % IA/g and the Spleen (48 h p.i.) was 3.79 ± 0.89 % IA/g. For the same compound, the Stomach (48 h p.i.) was 1.49 ± 0.48 % IA/g, the Tumor-to-blood (48 h p.i.) was 5.94 ± 1.53 and the Tumor-to-kidney (48 h p.i.) was 3.17 ± 0.84. It also gave a Tumor-to-liver (48 h p.i.) of 29.0 ± 5.26, a Blood (96 h p.i.) of 7.37 ± 0.64 % IA/g and a Bone (96 h p.i.) of 1.07 ± 0.27 % IA/g. For the same compound, the Heart (96 h p.i.) was 3.15 ± 0.28 % IA/g, the Intestines (96 h p.i.) was 1.21 ± 0.26 % IA/g and the Kidneys (96 h p.i.) was 16.1 ± 1.69 % IA/g. It also gave a Liver (96 h p.i.) of 1.78 ± 0.03 % IA/g, a Lung (96 h p.i.) of 5.56 ± 0.54 % IA/g and a Muscle (96 h p.i.) of 0.91 ± 0.15 % IA/g. The “PC-3 PIP Tumor” value (96 h p.i.) was 75.7 ± 2.46 % IA/g, the “PC-3 flu Tumor” value (96 h p.i.) was 3.52 ± 0.54 % IA/g and the Salivary glands (96 h p.i.) was 2.19 ± 0.1 % IA/g. The Spleen (96 h p.i.) was 3.23 ± 0.53 % IA/g, the Stomach (96 h p.i.) was 0.91 ± .010 % IA/g and the Tumor-to-blood (96 h p.i.) was 10.3 ± 0.57. It also gave a Tumor-to-kidney (96 h p.i.) of 4.7 ± 0.38, a Tumor-to-liver (96 h p.i.) of 42.6 ± 1.90 and a Blood (144 h p.i.) of 6.02 ± 0.60 % IA/g. For the same compound, the Bone (144 h p.i.) was 1.14 ± 0.23 % IA/g, the Heart (144 h p.i.) was 2.55 ± 0.25 % IA/g and the Intestines (144 h p.i.) was 0.88 ± 0.18 % IA/g. It also gave a Kidneys (144 h p.i.) of 11.2 ± 3.82 % IA/g, a Liver (144 h p.i.) of 1.50 ± 0.14 % IA/g and a Lung (144 h p.i.) of 4.99 ± 1.00 % IA/g. For the same compound, the Muscle (144 h p.i.) was 0.54 ± 0.07 % IA/g, the “PC-3 PIP Tumor” value (144 h p.i.) was 68.9 ± 8.80 % IA/g and the “PC-3 flu Tumor” value (144 h p.i.) was 2.77 ± 0.41 % IA/g. For the same compound, the Salivary glands (144 h p.i.) was 1.67 ± 0.27 % IA/g, the Spleen (144 h p.i.) was 2.94 ± 0.39 % IA/g and the Stomach (144 h p.i.) was 0.73 ± 0.10 % IA/g. It also gave a Tumor-to-blood (144 h p.i.) of 11.4 ± 0.47, a Tumor-to-kidney (144 h p.i.) of 6.44 ± 1.27 and a Tumor-to-liver (144 h p.i.) of 46.0 ± 2.53. For the same compound, the Blood (192 h p.i.) was 5.29 ± 0.18 % IA/g, the Bone (192 h p.i.) was 0.83 ± 0.22 % IA/g and the Heart (192 h p.i.) was 2.08 ± 0.14 % IA/g. It also gave an Intestines (192 h p.i.) of 0.96 ± 0.03 % IA/g, a Kidneys (192 h p.i.) of 7.35 ± 0.92 % IA/g and a Liver (192 h p.i.) of 1.25 ± 0.20 % IA/g. For the same compound, the Lung (192 h p.i.) was 4.17 ± 0.68 % IA/g, the Muscle (192 h p.i.) was 0.62 ± 0.04 % IA/g and the “PC-3 PIP Tumor” value (192 h p.i.) was 58.9 ± 12.4 % IA/g. The “PC-3 flu Tumor” value (192 h p.i.) was 2.42 ± 0.23 % IA/g, the Salivary glands (192 h p.i.) was 1.55 ± 0.06 % IA/g and the Spleen (192 h p.i.) was 3.13 ± 0.90 % IA/g. The Stomach (192 h p.i.) was 0.78 ± 0.07 % IA/g, the Tumor-to-blood (192 h p.i.) was 11.1 ± 1.97 and the Tumor-to-kidney (192 h p.i.) was 7.97 ± 0.70. For the same compound, the Tumor-to-liver (192 h p.i.) was 47.1 ± 2.44.
